Starred links: 1 amine or outer side, 2 acyl side, 3 side chain; linkers in the order of their positions; H or OH if unused. Positions of bridges follow the written chain, without caps; N, C: chain ends. Non-standard residues stand in square brackets, D forms with d. Residues, ends and D or L forms follow the SMILES beside them. *: point of attachment. hPhe(3-Cl-4-CF3) = N[C@@H](CCc1ccc(C(F)(F)F)c(Cl)c1)C(=O)O; NMeAla(4-thiazolyl) = CN[C@@H](Cc1cscn1)C(=O)O; NMePhe(4-Me) = CN[C@@H](Cc1ccc(C)cc1)C(=O)O; NMeNle(6-CHF2) = CN[C@@H](CCCCC(F)F)C(=O)O; NMedβ3hAla = C[C@H](CC(=O)[*:2])N(C)[*:1]; NMeAla(cPent) = CN[C@@H](CC1CCCC1)C(=O)O; NMeGly(cPent) = CN[C@H](C(=O)O)C1CCCC1; NMeGly(cBu) = CN[C@H](C(=O)O)C1CCC1; NMeCha = CN[C@@H](CC1CCCCC1)C(=O)O; NMeChg = CN[C@H](C(=O)O)C1CCCCC1; NMeI = CC[C@H](C)[C@H](NC)C(=O)O; NMeD = CN[C@@H](CC(=O)O)C(=O)O; NMeL = CN[C@@H](CC(C)C)C(=O)O; NMeV = CN[C@H](C(=O)O)C(C)C; d(β3hA) = C[C@@H](N)CC(=O)O; Azetidin(1-yl) = C1CN(*)C1; Ac6c = NC1(C(=O)O)CCCCC1; Morpholide = C1CN(*)CCO1; NMeA = CN[C@@H](C)C(=O)O; Piperidide = C1CCN(*)CC1; Ac5c = NC1(C(=O)O)CCCC1; Aze = O=C(O)[C@@H]1CCN1; Sar = CNCC(=O)O

Results on seven compounds are retold here after patent US12371454B2, “Cyclic peptide compound having Kras inhibitory action” (priority 2019, dated 2025).

Assay [1] has as its target T1, Kras and SOS1 (biotin-tagged human Kras loaded with GDP, His-tagged human SOS1) (Homo sapiens, UniProt P01116, G12D).
T1 construct: made in house; host or cells: E. coli (stated for Kras only)
The experiment in a line: Protein-protein interaction inhibition between Kras and SOS1 (KrasGl2D-SOS PPI) using AlphaScreen. To be noted: AlphaScreen; biotin-tagged human Kras loaded with GDP, His-tagged human SOS1; read-out: KRAS G12D-SOS PPI IC50. Format: binding. The gist of the method:
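Read-out is acceptor-bead light at 520-620 nm, arising when 680 nm-irradiated nickel donor beads pass singlet oxygen to streptavidin acceptors. The bead pair links His-tagged SOS1 with biotin-tagged, GDP-bound Kras from E. coli.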
Background: Alpha assays give light when donor and acceptor beads are brought close together.

The test system of assay [2] is Human pancreatic cancer cell line AsPC-1. The experiment in a line: Measurement of AsPC-1 cell growth inhibition (AsPC-1 CGI). To be noted: 96 h. Type of assay: cell-based. The method in brief: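 AsPC-1 cells in 15% FBS RPMI-1640 were exposed to test compound for 96 hours at 37° C, with CellTiter-Glo as endpoint.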

T1 sequence (P01116 1-188 isoform P01116-2 G12D): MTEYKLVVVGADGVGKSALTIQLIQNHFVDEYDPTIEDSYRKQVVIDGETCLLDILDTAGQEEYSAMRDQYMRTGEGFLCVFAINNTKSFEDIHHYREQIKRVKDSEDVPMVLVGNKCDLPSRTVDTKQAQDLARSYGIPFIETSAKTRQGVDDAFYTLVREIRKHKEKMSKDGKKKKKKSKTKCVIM

In general, IC50 refers to the concentration at which inhibition is half-maximal. Take `CC[C@H](C)[C@@H]1NC(=O)[C@H](CC(C)C)N(C)C(=O)C[C@@H](C)N(C)C(=O)[C@H](C2CCCC2)N(C)C(=O)C2(CCCC2)NC(=O)[C@@H]2CCCN2C(=O)[C@H](CCc2ccc(C(F)(F)F)c(Cl)c2)NC(=O)CN(C)C(=O)[C@H](CC2CCCCC2)N(C)C(=O)CN(C)C(=O)CN(C)C1=O` [Compound 420] (cyclo([Ac5c][NMeGly(cPent)][NMedβ3hAla][NMeL]I[Sar][Sar][NMeCha][Sar][hPhe(3-Cl-4-CF3)]P)): the figures for the IC50 in assay [1] and in assay [2] were 0.0034 µM and 0.05 to 0.1 µM, respectively.
In the case of `CC[C@H](C)[C@@H]1NC(=O)[C@H](CCCCC(F)F)N(C)C(=O)C[C@@H](C(=O)N2CCCCC2)N(C)C(=O)[C@H](C2CCCCC2)N(C)C(=O)C2(CCCC2)NC(=O)[C@@H]2CCCN2C(=O)[C@H](CCc2ccc(C(F)(F)F)c(Cl)c2)NC(=O)CN(C)C(=O)[C@H](CC2CCCCC2)N(C)C(=O)CN(C)C(=O)CN(C)C1=O` [Compound 425] ([NMeNle(6-CHF2)]I[Sar][Sar][NMeCha][Sar][hPhe(3-Cl-4-CF3)]P[Ac5c][NMeChg][NMeD]-Piperidide; lactam N-11), the figures for the half-inhibitory concentration (IC50) in assay [1] and in assay [2] were 0.00057 µM and 0.05 to 0.1 µM, respectively.
Regarding `CC[C@H](C)[C@@H]1NC(=O)[C@H](C2CCC2)N(C)C(=O)C[C@@H](C(=O)N2CCOCC2)N(C)C(=O)[C@H](C2CCCCC2)N(C)C(=O)C2(CCCC2)NC(=O)[C@@H]2CCCN2C(=O)[C@H](CCc2ccc(C(F)(F)F)c(Cl)c2)NC(=O)CN(C)C(=O)[C@H](CC2CCCC2)N(C)C(=O)CN(C)C(=O)CN(C)C1=O` [Compound 434] ([NMeGly(cBu)]I[Sar][Sar][NMeAla(cPent)][Sar][hPhe(3-Cl-4-CF3)]P[Ac5c][NMeChg][NMeD]-Morpholide; lactam N-11), the results for the IC50 in assay [1] and in assay [2] were 0.00052 µM and 0.05 to 0.1 µM, respectively.
The matching figures for `CC[C@H](C)[C@@H]1NC(=O)[C@H](CC(C)C)N(C)C(=O)C[C@@H](C(=O)N2CCC2)N(C)C(=O)[C@H](C2CCCCC2)N(C)C(=O)C2(CCCC2)NC(=O)[C@@H]2CCCN2C(=O)[C@H](CCc2ccc(C(F)(F)F)c(Cl)c2)NC(=O)CN(C)C(=O)[C@H](CC2CCCCC2)N(C)C(=O)CN(C)C(=O)CN(C)C1=O` [Compound 437] ([NMeL]I[Sar][Sar][NMeCha][Sar][hPhe(3-Cl-4-CF3)]P[Ac5c][NMeChg][NMeD]-{Azetidin(1-yl)}; lactam N-11): 0.00047 µM and 0.05 to 0.1 µM.
The matching figures for `CC[C@H](C)[C@@H]1NC(=O)[C@H](CC(C)C)N(C)C(=O)C[C@@H](C(=O)N2CCCCC2)N(C)C(=O)[C@H](C(C)C)N(C)C(=O)C2(CCCC2)NC(=O)[C@@H]2CCCN2C(=O)[C@H](CCc2ccc(C(F)(F)F)c(Cl)c2)NC(=O)CN(C)C(=O)[C@H](CC2CCCCC2)N(C)C(=O)CN(C)C(=O)CN(C)C1=O` [Compound 438] ([NMeL]I[Sar][Sar][NMeCha][Sar][hPhe(3-Cl-4-CF3)]P[Ac5c][NMeV][NMeD]-Piperidide; lactam N-11): 0.006 µM and 0.05 to 0.1 µM.
The matching figures for `CC[C@H](C)[C@@H]1NC(=O)[C@H](CC(C)C)N(C)C(=O)C[C@@H](C)NC(=O)[C@H](C(C)C)N(C)C(=O)C2(CCCCC2)NC(=O)[C@@H]2CCCN2C(=O)[C@H](CCc2ccc(C(F)(F)F)c(Cl)c2)NC(=O)CN(C)C(=O)[C@H](CC2CCCCC2)N(C)C(=O)CN(C)C(=O)CN(C)C1=O` [Compound 439] (cyclo([Ac6c][NMeV][d(β3hA)][NMeL]I[Sar][Sar][NMeCha][Sar][hPhe(3-Cl-4-CF3)]P)): 0.052 µM and 0.1 to 0.5 µM.
Consider `CC[C@H](C)[C@@H]1NC(=O)[C@H](CC(C)C)N(C)C(=O)C[C@@H](C(=O)N(C)C)N(C)C(=O)[C@H]([C@@H](C)CC)N(C)C(=O)C2(CCCC2)NC(=O)[C@H](Cc2cscn2)N(C)C(=O)[C@H](CCc2ccc(C(F)(F)F)c(Cl)c2)NC(=O)CN(C)C(=O)[C@H](Cc2ccc(C)cc2)N(C)C(=O)[C@@H]2CCN2C(=O)[C@H](C)N(C)C1=O` [Compound 441] ([NMeL]I[NMeA][Aze][NMePhe(4-Me)][Sar][hPhe(3-Cl-4-CF3)][NMeAla(4-thiazolyl)][Ac5c][NMeI][NMeD]-NMe2; lactam N-11), for which the concentration for half-maximal inhibition (IC50) in assay [1] is 0.00073 µM; in assay [2], 0.02 to 0.05 µM.
